Assay results taken from ChEMBL document CHEMBL1130041, “Halogenated 4-(phenoxymethyl)piperidines as potential radiolabeled probes for sigma-1 receptors: in vivo evaluation of [123I]-1-(iodopropen-2-yl)-4-[(4-cyanophenoxy)methyl]pip eri dine” (J Med Chem, 1997).

Key:
[1] = In Vitro binding affinity for 5-hydroxytryptamine 2 receptor
Rattus norvegicus [2] = species on record: Rattus norvegicus; experiment: Biodistribution of [123I]-label in rat liver was reported at 24 h post injection. Value shown is %ID/g of tissue; type: ADME, organism-based; conditions: in vivo
Rattus norvegicus [3] = species on record: Rattus norvegicus; experiment: Biodistribution of [123I]-label in rat lung was reported at 0.33 hr post injection. Value shown is %ID/g of tissue; type: ADME, organism-based; conditions: in vivo
Rattus norvegicus [4] = species on record: Rattus norvegicus; experiment: Biodistribution of [123I]-label in rat blood was reported at 24 hr post injection. Value shown is %ID/g of tissue; type: ADME, organism-based; conditions: in vivo
Rattus norvegicus [5] = species on record: Rattus norvegicus; experiment: Biodistribution of [123I]-label in rat brain was reported at 0.33 hr post injection. Value shown is %ID/g of tissue; type: ADME, organism-based; conditions: in vivo
Rattus norvegicus [6] = species on record: Rattus norvegicus; experiment: Biodistribution of [123I]-label in rat brain was reported at 1 hr post injection. Value shown is %ID/g of tissue; type: ADME, organism-based; conditions: in vivo
Rattus norvegicus [7] = species on record: Rattus norvegicus; experiment: Biodistribution of [123I]-label in rat brain was reported at 2 hr post injection. Value shown is %ID/g of tissue; type: ADME, organism-based; conditions: in vivo
Rattus norvegicus [8] = species on record: Rattus norvegicus; experiment: Biodistribution of [123I]-label in rat brain was reported at 24 hr post injection. Value shown is %ID/g of tissue; type: ADME, organism-based; conditions: in vivo
Rattus norvegicus [9] = species on record: Rattus norvegicus; experiment: Biodistribution of [123I]-label in rat brain was reported at 4 hr post injection. Value shown is %ID/g of tissue; type: ADME, organism-based; conditions: in vivo
Rattus norvegicus [10] = species on record: Rattus norvegicus; experiment: Biodistribution of [123I]-label in rat heart was reported at 0.33 hr post injection. Value shown is %ID/g of tissue; type: ADME, organism-based; conditions: in vivo
Rattus norvegicus [11] = species on record: Rattus norvegicus; experiment: Biodistribution of [123I]-label in rat heart was reported at 1 hr post injection. Value shown is %ID/g of tissue; type: ADME, organism-based; conditions: in vivo
Rattus norvegicus [12] = species on record: Rattus norvegicus; experiment: Biodistribution of [123I]-label in rat spleen was reported at 0.33 hr post injection. Value shown is %ID/g of tissue; type: ADME, organism-based; conditions: in vivo
Rattus norvegicus [13] = species on record: Rattus norvegicus; experiment: Biodistribution of [123I]-label in rat spleen was reported at 1 hr post injection. Value shown is %ID/g of tissue; type: ADME, organism-based; conditions: in vivo
Rattus norvegicus [14] = species on record: Rattus norvegicus; experiment: Biodistribution of [123I]-label in rat spleen was reported at 2 hr post injection. Value shown is %ID/g of tissue; type: ADME, organism-based; conditions: in vivo
Rattus norvegicus [15] = species on record: Rattus norvegicus; experiment: Biodistribution of [123I]-label in rat spleen was reported at 24 h post injection. Value shown is %ID/g of tissue; type: ADME, organism-based; conditions: in vivo
Rattus norvegicus [16] = species on record: Rattus norvegicus; experiment: Biodistribution of [123I]-label in rat spleen was reported at 4 hr post injection. Value shown is %ID/g of tissue; type: ADME, organism-based; conditions: in vivo
Rattus norvegicus [17] = species on record: Rattus norvegicus; experiment: Biodistribution of [123I]-label in rat stomach was reported at 2 hr post injection. Value shown is %ID/g of tissue; type: ADME, organism-based; conditions: in vivo
Rattus norvegicus [18] = species on record: Rattus norvegicus; experiment: Distribution of [123I]-label in rat brain (diencephalon) was reported at 60 min post injection. Value shown is %ID/g of tissue; type: ADME, organism-based; conditions: in vivo, 1 h
Rattus norvegicus [19] = species on record: Rattus norvegicus; experiment: Distribution of [123I]-label in rat brain (frontal cortex) was reported at 20 min post injection. Value shown is %ID/g of tissue; type: ADME, organism-based; conditions: in vivo
Rattus norvegicus [20] = species on record: Rattus norvegicus; experiment: Distribution of [123I]-label in rat brain (hippocampus) was reported at 20 min post injection. Value shown is %ID/g of tissue; type: ADME, organism-based; conditions: in vivo
Rattus norvegicus [21] = species on record: Rattus norvegicus; experiment: Distribution of [123I]-label in rat brain (hippocampus) was reported at 60 min post injection. Value shown is %ID/g of tissue; type: ADME, organism-based; conditions: in vivo, 1 h
Rattus norvegicus [22] = species on record: Rattus norvegicus; experiment: Distribution of [123I]-label in rat brain (medulla pons) was reported at 60 min post injection. Value shown is %ID/g of tissue; type: ADME, organism-based; conditions: in vivo, 1 h
Rattus norvegicus [23] = species on record: Rattus norvegicus; experiment: Distribution of [123I]-label in rat brain (posterior cortex) was reported at 20 min post injection. Value shown is %ID/g of tissue; type: ADME, organism-based; conditions: in vivo
Rattus norvegicus [24] = species on record: Rattus norvegicus; experiment: Biodistribution of [123I]-label in rat blood was reported at 0.33 hr post injection. Value shown is %ID/g of tissue; type: ADME, organism-based; conditions: in vivo
Rattus norvegicus [25] = species on record: Rattus norvegicus; experiment: Biodistribution of [123I]-label in rat heart was reported at 4 hr post injection. Value shown is %ID/g of tissue; type: ADME, organism-based; conditions: in vivo
Rattus norvegicus [26] = species on record: Rattus norvegicus; experiment: Biodistribution of [123I]-label in rat intestine was reported at 0.33 hr post injection. Value shown is %ID/g of tissue; type: ADME, organism-based; conditions: in vivo
Rattus norvegicus [27] = species on record: Rattus norvegicus; experiment: Biodistribution of [123I]-label in rat intestine was reported at 1 hr post injection. Value shown is %ID/g of tissue; type: ADME, organism-based; conditions: in vivo
Rattus norvegicus [28] = species on record: Rattus norvegicus; experiment: Biodistribution of [123I]-label in rat intestine was reported at 2 hr post injection. Value shown is %ID/g of tissue; type: ADME, organism-based; conditions: in vivo
Rattus norvegicus [29] = species on record: Rattus norvegicus; experiment: Biodistribution of [123I]-label in rat intestine was reported at 24 hr post injection. Value shown is %ID/g of tissue; type: ADME, organism-based; conditions: in vivo
Rattus norvegicus [30] = species on record: Rattus norvegicus; experiment: Biodistribution of [123I]-label in rat intestine was reported at 4 hr post injection. Value shown is %ID/g of tissue; type: ADME, organism-based; conditions: in vivo
Rattus norvegicus [31] = species on record: Rattus norvegicus; experiment: Biodistribution of [123I]-label in rat kidneys was reported at 0.33 hr post injection. Value shown is %ID/g of tissue; type: ADME, organism-based, Kidney; conditions: in vivo
Rattus norvegicus [32] = species on record: Rattus norvegicus; experiment: Biodistribution of [123I]-label in rat kidneys was reported at 1 h post injection. Value shown is %ID/g of tissue; type: ADME, organism-based, Kidney; conditions: in vivo
Rattus norvegicus [33] = species on record: Rattus norvegicus; experiment: Biodistribution of [123I]-label in rat kidneys was reported at 24 hr post injection. Value shown is %ID/g of tissue; type: ADME, organism-based, Kidney; conditions: in vivo
Rattus norvegicus [34] = species on record: Rattus norvegicus; experiment: Biodistribution of [123I]-label in rat liver was reported at 1 hr post injection. Value shown is %ID/g of tissue; type: ADME, organism-based; conditions: in vivo
Rattus norvegicus [35] = species on record: Rattus norvegicus; experiment: Biodistribution of [123I]-label in rat liver was reported at 2 hr post injection. Value shown is %ID/g of tissue; type: ADME, organism-based; conditions: in vivo
Rattus norvegicus [36] = species on record: Rattus norvegicus; experiment: Biodistribution of [123I]-label in rat lung was reported at 24 hr post injection. Value shown is %ID/g of tissue; type: ADME, organism-based; conditions: in vivo
Rattus norvegicus [37] = species on record: Rattus norvegicus; experiment: Biodistribution of [123I]-label in rat lung was reported at 4 hr post injection. Value shown is %ID/g of tissue; type: ADME, organism-based; conditions: in vivo
Rattus norvegicus [38] = species on record: Rattus norvegicus; experiment: Biodistribution of [123I]-label in rat muscle was reported at 0.33 hr post injection. Value shown is %ID/g of tissue; type: ADME, organism-based; conditions: in vivo
Rattus norvegicus [39] = species on record: Rattus norvegicus; experiment: Biodistribution of [123I]-label in rat muscle was reported at 24 hr post injection. Value shown is %ID/g of tissue; type: ADME, organism-based; conditions: in vivo
Rattus norvegicus [40] = species on record: Rattus norvegicus; experiment: Biodistribution of [123I]-label in rat muscle was reported at 4 hr post injection. Value shown is %ID/g of tissue; type: ADME, organism-based; conditions: in vivo
Rattus norvegicus [41] = species on record: Rattus norvegicus; experiment: Biodistribution of [123I]-label in rat brain was reported at 1 hr post injection. Value shown is %ID/organ; type: ADME, organism-based; conditions: in vivo
Rattus norvegicus [42] = species on record: Rattus norvegicus; experiment: Biodistribution of [123I]-label in rat brain was reported at 2 hr post injection. Value shown is %ID/organ; type: ADME, organism-based; conditions: in vivo
Rattus norvegicus [43] = species on record: Rattus norvegicus; experiment: Biodistribution of [123I]-label in rat thyroid was reported at 0.33 hr post injection. Value shown is %ID/organ; type: ADME, organism-based, Thyroid gland; conditions: in vivo
[44] = Partition coefficient (logP); type: physicochemical; conditions: octanol/water
D(2) dopamine receptor = D(2) dopamine receptor (Homo sapiens, UniProt P14416); experiment: In vitro binding affinity for Dopamine receptor D2
Rattus norvegicus [45] = species on record: Rattus norvegicus; experiment: Distribution of [123I]-label in rat brain (midbrain) was reported at 60 min post injection. Value shown is %ID/g of tissue; type: ADME, organism-based; conditions: in vivo, 1 h

Chain of D(2) dopamine receptor (P14416 whole entry): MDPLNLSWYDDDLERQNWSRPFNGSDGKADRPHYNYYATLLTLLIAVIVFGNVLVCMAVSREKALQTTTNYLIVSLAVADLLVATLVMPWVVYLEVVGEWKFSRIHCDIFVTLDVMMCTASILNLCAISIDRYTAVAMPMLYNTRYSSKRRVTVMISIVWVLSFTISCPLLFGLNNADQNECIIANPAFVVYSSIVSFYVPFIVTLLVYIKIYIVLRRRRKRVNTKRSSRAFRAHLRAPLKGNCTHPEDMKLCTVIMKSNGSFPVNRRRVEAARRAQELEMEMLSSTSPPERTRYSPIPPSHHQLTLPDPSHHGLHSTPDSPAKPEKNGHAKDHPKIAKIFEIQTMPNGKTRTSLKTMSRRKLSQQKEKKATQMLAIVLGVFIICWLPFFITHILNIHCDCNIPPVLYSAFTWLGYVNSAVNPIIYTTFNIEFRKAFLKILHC

SMILES: N#Cc1ccc(OCC2CCN(C/C=C/I)CC2)cc1
- Ki [1]: > 10 µM
- ID/g (Rattus norvegicus [2]): 0.55%
- ID/g (Rattus norvegicus [3]): 6.59%
- ID/g (Rattus norvegicus [4]): 0.01%
- ID/g (Rattus norvegicus [5]): 1.06%
- ID/g (Rattus norvegicus [6]): 1.09%
- ID/g (Rattus norvegicus [7]): 0.91%
- ID/g (Rattus norvegicus [8]): 0.84%
- ID/g (Rattus norvegicus [9]): 1.07%
- ID/g (Rattus norvegicus [10]): 1.25%
- ID/g (Rattus norvegicus [11]): 1.21%
- ID/g (Rattus norvegicus [12]): 0.91%
- ID/g (Rattus norvegicus [13]): 0.92%
- ID/g (Rattus norvegicus [14]): 0.89%
- ID/g (Rattus norvegicus [15]): 0.87%
- ID/g (Rattus norvegicus [16]): 0.93%
- ID/g (Rattus norvegicus [17]): 0.3%
- ID/g (Rattus norvegicus [18]): 1.18%
- ID/g (Rattus norvegicus [19]): 1.28%
- ID/g (Rattus norvegicus [20]): 1.02%
- ID/g (Rattus norvegicus [21]): 1.06%
- ID/g (Rattus norvegicus [22]): 1%
- ID/g (Rattus norvegicus [23]): 1.43%
- ID/g (Rattus norvegicus [24]): 0.05%
- ID/g (Rattus norvegicus [25]): 0.67%
- ID/g (Rattus norvegicus [26]): 0.54%
- ID/g (Rattus norvegicus [27]): 0.82%
- ID/g (Rattus norvegicus [28]): 0.84%
- ID/g (Rattus norvegicus [29]): 0.74%
- ID/g (Rattus norvegicus [30]): 0.81%
- ID/g (Rattus norvegicus [31]): 1.64%
- ID/g (Rattus norvegicus [32]): 1.64%
- ID/g (Rattus norvegicus [33]): 0.59%
- ID/g (Rattus norvegicus [34]): 0.45%
- ID/g (Rattus norvegicus [35]): 0.43%
- ID/g (Rattus norvegicus [36]): 0.79%
- ID/g (Rattus norvegicus [37]): 3.14%
- ID/g (Rattus norvegicus [38]): 0.23%
- ID/g (Rattus norvegicus [39]): 0.09%
- ID/g (Rattus norvegicus [40]): 0.2%
- ID (Rattus norvegicus [41]): 1.96%
- ID (Rattus norvegicus [42]): 2.01%
- ID (Rattus norvegicus [43]): 0.09%
- logP [44]: 3.36
- Ki (D(2) dopamine receptor): > 10 µM
- ID/g (Rattus norvegicus [45]): 1.17%
